Numbered stars: 1 amine (or outer) side, 2 acyl side, 3 side chain; on linkers, the order of the positions; unused ones are H or OH. Square brackets hold non-standard residues; d marks the D form. Peptide text beside a SMILES is read from it. β3hPhg = O=C(C[C@@H](N[*:1])c1ccccc1)[*:2]; ΔPro = O=C(O)[C@@H]1C=CCN1; Abu = CC[C@H](N)C(=O)O
Test: Immunosuppressive activity in C57BL/6 mouse lymph node cells after 24 hrs by MTT assay
Assay type: functional
Conditions: C57BL/6, 24 h

| SMILES | IC50 [µM] |
| --- | --- |
| CC[C@@H]1NC(=O)C[C@H](c2ccccc2)NC(=O)[C@H](CO)NC(=O)[C@H](CC)NC(=O)[C@H](CCCCN)NC1=O (cyclo([Abu]K[Abu]S[β3hPhg])) | > 100 |
| CCCCCCC[C@@H]1NC(=O)[C@H](CC)NC(=O)C[C@H](c2ccccc2)NC(=O)[C@H](CO)NC(=O)[C@H](CC)NC1=O | 65.2 |
| CC[C@@H]1NC(=O)C[C@H](c2ccccc2)NC(=O)[C@H](CO)NC(=O)[C@H](CC)NC(=O)[C@H](CC(C)C)NC1=O (cyclo([Abu]L[Abu]S[β3hPhg])) | > 100 |
| CC[C@@H]1NC(=O)C[C@H](c2ccccc2)NC(=O)[C@H](CO)NC(=O)[C@H](CC)NC(=O)[C@H](Cc2ccc(O)cc2)NC1=O (cyclo([Abu]S[β3hPhg][Abu]Y)) | > 100 |
| CC[C@@H]1NC(=O)[C@@H]2[C@@H](O)[C@@H](O)CN2C(=O)[C@H](CC)NC(=O)C[C@H](c2ccccc2)NC(=O)[C@H](CO)NC1=O | > 100 |
| CC[C@@H]1NC(=O)C[C@H](c2ccccc2)NC(=O)[C@H](CO)NC(=O)[C@H](CC)NC(=O)[C@H](C)NC1=O (cyclo(A[Abu]S[β3hPhg][Abu])) | > 100 |
| CC[C@@H]1NC(=O)C[C@H](c2ccccc2)NC(=O)[C@H](CO)NC(=O)[C@H](CC)NC(=O)[C@H]([C@H](C)O)NC1=O | > 100 |
| CC[C@@H]1NC(=O)[C@@H]2C=CCN2C(=O)[C@H](CC)NC(=O)C[C@H](c2ccccc2)NC(=O)[C@H](CO)NC1=O (cyclo([Abu]S[β3hPhg][Abu][ΔPro])) | > 100 |
| CC[C@@H]1NC(=O)C[C@H](c2ccccc2)NC(=O)[C@H](CO)NC(=O)[C@H](CC)NC(=O)[C@H](C(C)C)NC1=O (cyclo([Abu]S[β3hPhg][Abu]V)) | > 100 |
| CC[C@@H]1NC(=O)C[C@H](c2ccccc2)NC(=O)[C@H](CO)NC(=O)[C@H](CC)NC1=O | > 100 |
| CC[C@@H]1NC(=O)[C@@H]2[C@H](Cl)[C@H](Cl)CN2C(=O)[C@H](CC)NC(=O)C[C@H](c2ccccc2)NC(=O)[C@H](CO)NC1=O | 12.6 |
| CC[C@@H]1NC(=O)C[C@H](c2ccccc2)NC(=O)[C@H](CO)NC(=O)[C@H](CC)NC(=O)[C@H]([C@H](C)OC(=O)c2ccc[nH]2)NC1=O | > 100 |
| CC[C@@H]1NC(=O)C[C@H](c2ccccc2)NC(=O)[C@H](CO)NC(=O)[C@H](CC)NC(=O)[C@@H]([C@@H](C)O)NC1=O | 38.4 |
| CC[C@@H]1NC(=O)C[C@H](c2ccccc2)NC(=O)[C@H](CO)NC(=O)[C@H](CC)NC(=O)[C@@H]([C@H](C)O)NC1=O | 51.8 |
| CC[C@@H]1NC(=O)C[C@H](c2ccccc2)NC(=O)[C@H](CC)NC(=O)C[C@H](c2ccccc2)NC(=O)[C@H](CO)NC1=O | 61.8 |
| CC[C@@H]1NC(=O)C[C@H](c2ccccc2)NC(=O)[C@H](CO)NC(=O)[C@H](CC)NC(=O)[C@H]([C@@H](C)O)NC1=O | > 100 |
| CC[C@@H]1NC(=O)C[C@H](c2ccccc2)NC(=O)[C@H](CO)NC(=O)[C@H](CC)NC(=O)[C@H](Cc2c[nH]cn2)NC1=O (cyclo([Abu]H[Abu]S[β3hPhg])) | > 100 |
| CC[C@@H]1NC(=O)C[C@H](c2ccccc2)NC(=O)[C@H](CO)NC(=O)[C@H](CC)NC(=O)[C@H](CCCNC(=N)N)NC1=O (cyclo([Abu]R[Abu]S[β3hPhg])) | > 100 |
